Data taken from patent EP2963029A1, “Cyclic derivatives of epoxyisoprostanoids as therapeutic agents” (ETH Zurich, priority 2014, dated 2016).
Where two headings read alike, the source gives them in different places.

Assays:
IL-12 [1] = settings: bone-marrow derived dendritic cells, Egger et al., Angew. Chem. Int. Ed. 2013, cited from earlier work
naïve CD4 T cells = experiment: Co-culture of compound-pretreated splenic dendritic cells with naive CD4 T cells; Th1/Th2 polarization by intracellular FACS staining; assay type: cell-based, C57BL/6 mice
IL-12 [2] = experiment: IL-12 secretion by bone marrow-derived dendritic cells stimulated with TLR7 agonist R837 (ELISA); assay type: cell-based, mouse; settings: BMDCs treated 60 minutes, then R837 for 18 h (Figures 3-5)
Source text: (§1) • Figure 1: Treatment with cyclo-EC (9) licenses dendritic cells to polarize niave CD4 T cells towards the Th2 subset. Naïve transgenic splenic CD4 T cells were co-cultured together with splenic dendritic cells that had been pre-treated either with cyclo-EC (9) (cEC) or the respective solvent control. CD4 T cells were then stimulated with the cognate antigen for 4 days. […] Shown is the percentage of IL-4 producing Th2 and IFNγ producing Th1 cells after treatment with cEC or solvent DMSO. Differences between cEC and DMSO treatments are significant as indicated by (*) using unpaired, two-tailed t tests. […] Wild type bone marrow-derived dendritic cells were pretreated with cyclo-EC (9) (cEC) or solvent control for 75 minutes before stimulation with the TLR7 (toll-like receptor 7) ligand R837 (Syed, T. A., Exp.Opin.Pharmacother. 2001, 2, 877) for an additional 3 h. Cells were then lysed, mRNA was purified, reverse transcribed and expression of Nrf2 ([…]) target genes as well as the indicated chemokine genes was determined by qPCR. […] Cytokines in the supernatant were quantified with ELISA. • Figure 4. […] Cytokines in the supernatant were quantified with ELISA. • Figure 5. […]
(§2) Bone marrow cells from tibia and femur were isolated ex vivo and differentiated in vitro into bone marrow derived dendritic cells (BMDC) by cultivation in the presence of 2 ng/ml carrier free recombinant mouse GM-CSF (BioLegend, 576308) in RPMI 1640 medium (GE Healthcare, E15-039) supplemented with L-glutamine (Lonza-Cambrex BioWhittaker, BE17-605E), HEPES Buffer (Lonza-Cambrex BioWhittaker, BE17-737E), peniciline/ streptomycine (Gibco Life Technologies 15140-122) and fetal bovine serum (Gibco Life Sciences 10270-106). […] Cells were then harvested, counted and seeded into 96-well flat bottom plates at 10^5 cells/well. […] Cytokine concentrations in supernatant were quantified by sandwich ELISA using the following antibody pairs: IL-6 (504502 and 504602) from BioLegend and IL-12 (14-7125-85 and 13-7123-85) from eBioscience. […] Optical density was measured using a Spectra MAX 190 device by Bucher biotec. […]

Nrf2 target genes = experiment: qPCR expression of Nrf2 target genes in pretreated, R837-stimulated bone marrow-derived dendritic cells; assay type: cell-based, mouse
Source text: as §1, with “qPCR. Expression levels were normalized to G6PDH (glucose 6-phosphate dehydrogenase) expression.” for “qPCR.”

IL-6 [3] = experiment: IL-6 secretion by bone marrow-derived dendritic cells stimulated with TLR7 agonist R837 (ELISA); assay type: cell-based, mouse; settings: BMDCs treated 60 minutes, then R837 for 18 h (Figures 3-5)
Source text: as §1, §2

IL-6 [4] = settings: bone-marrow derived dendritic cells, Egger et al., Angew. Chem. Int. Ed. 2013, cited from earlier work
[5] = system: Pro-inflammatory chemokine genes: CCL1, 2, 3 and 4; experiment: qPCR expression of pro-inflammatory chemokine genes in pretreated, R837-stimulated bone marrow-derived dendritic cells; assay type: cell-based, mouse; settings: pretreated 75 minutes, then R837 for 3 h; normalized to G6PDH (Figure 2)
Source text: as §1, with “qPCR. Expression levels were normalized to G6PDH (glucose 6-phosphate dehydrogenase) expression.” for “qPCR.”

Structure (SMILES): CCCCC/C=C\C[C@H]1C=CC(=O)/C1=C/[C@H]1O[C@@H]1CCCC(=O)O [EC (8), 4-((2R,3R)-3-((E)-((S)-2-((Z)-Oct-2-en-1-yl)-5-oxocyclopent-3-en-1-ylidene)-methyl)oxiran-2-yl)butanoic acid]
- secretion of pro-inflammatory cytokine IL-12 (IL-12 [1]): more potent than EI (19)
- secretion of pro-inflammatory cytokine IL-12 (IL-12 [1]; listed as 8): reduced secretion
- polarization of naïve CD4 T cells towards the Th2 subset (naïve CD4 T cells; earlier experiments, splenic dendritic cells): able to license splenic dendritic cells to polarize naïve CD4 T cells towards the Th2 subset
- inhibition of IL-12 secretion (IL-12 [2]): potent inhibitor of toll-like receptor 7 (TLR) mediated secretion of pro-inflammatory cytokines
- expression of downstream targets of Nrf2 (Nrf2 target genes; earlier experiments, quantitative PCR): able to drive expression of downstream targets of Nrf2
- inhibition of IL-6 secretion (IL-6 [3]): potent inhibitor of toll-like receptor 7 (TLR) mediated secretion of pro-inflammatory cytokines
- secretion of pro-inflammatory cytokine IL-6 (IL-6 [4]): more potent than EI (19)
- secretion of pro-inflammatory cytokine IL-6 (IL-6 [4]; listed as 8): reduced secretion

Structure (SMILES): CCCCC/C=C\C[C@@H]1/C(=C\[C@H]2O[C@@H]2CCCC(=O)O)C(=O)C[C@H]1O [EI (19), 5,6-epoxyisoprostane E2]
- secretion of pro-inflammatory cytokine IL-12 (IL-12 [1]): reduced secretion
- secretion of pro-inflammatory cytokine IL-6 (IL-6 [4]): reduced secretion

Structure (SMILES): CCCCC/C=C\C[C@H]1C=CC(=O)/C1=C/[C@@H](O)[C@@H]1CCCC(=O)O1 [cyclo-EC (9), (S)-6-((R,E)-1-Hydroxy-2-((S)-2-((Z)-oct-2-en-1-yl)-5-oxocyclopent-3-en-1-liydene)-ethyl)tetrahydro-2H-pyran-2-one]
- percentage of IFNγ producing Th1 cells (naïve CD4 T cells; dendritic cells treated with 500nM for 60 minutes, co-culture 4 days with 10 nM gp61, vs solvent DMSO, p = 0.0161 (Figure 1)): interferes with high dose antigen induced polarization towards the Th1 subset
- percentage of IL-4 producing Th2 cells (naïve CD4 T cells; dendritic cells treated with 500nM for 60 minutes, co-culture 4 days with 10 nM gp61, vs solvent DMSO, p = 0.039 (Figure 1)): licenses the dendritic cells to promote polarization of the Th2 subset
- inhibition of IL-12 secretion (IL-12 [2]): most potent inhibitor of IL-6 and IL-12 secretion
- inhibition of IL-12 secretion (IL-12 [2]; listed as cEC): attenuates secretion of pro-inflammatory cytokines at lower concentrations than EC
- expression of Nrf2 target genes (HO-1, NQO1) (Nrf2 target genes; pretreated 75 minutes, then R837 for 3 h, normalized to G6PDH (Figure 2)): induces expression of Nrf2 target genes
- inhibition of IL-6 secretion (IL-6 [3]): most potent inhibitor of IL-6 and IL-12 secretion
- inhibition of IL-6 secretion (IL-6 [3]; listed as cEC): attenuates secretion of pro-inflammatory cytokines at lower concentrations than EC
- pro-inflammatory chemokine expression (CCL1, 2, 3 and 4) [5]: inhibits pro-inflammatory chemokine expression
